ChEMBL document CHEMBL1201862, “PubChem BioAssay data set” (2004)
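Method: 48-hour compound exposure of cells in 96-well plates, five concentrations, linear interpolation of endpoints. GI50 = concentration required for 50% inhibition of growth.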 Activity calls are given as the source filed them. Rule as the data show it: active = GI50 up to about 1.1 µM and inactive = higher.

Columns and labels:
Assay in all cases: NCI-60 cell line screen, 48 h
786-0 = system: 786-0
A498 = system: A498
A549 = system: A549
ACHN = system: ACHN
CAKI-1 = system: CAKI-1
CCRF-CEM = system: CCRF-CEM
COLO 205 = system: COLO 205
DLD-1 = system: DLD-1
DMS-114 = system: DMS-114
DMS-273 = system: DMS-273
EKVX = system: EKVX
HCC 2998 = system: HCC 2998
HCT-116 = system: HCT-116
HCT-15 = system: HCT-15
HL-60 = system: HL-60
HOP-18 = system: HOP-18
HOP-62 = system: HOP-62
HOP-92 = system: HOP-92
HT-29 = system: HT-29
IGROV-1 = system: IGROV-1
K562 = system: K562
KM-20L2 = system: KM-20L2
KM12 = system: KM12
LOX IMVI = system: LOX IMVI
LXFL 529 = system: LXFL 529
M14 = system: M14
M19-MEL = system: M19-MEL
MOLT-4 = system: MOLT-4
Malme-3M = system: Malme-3M
NCI-H226 = system: NCI-H226
NCI-H23 = system: NCI-H23
NCI-H460 = system: NCI-H460
NCI-H522 = system: NCI-H522
OVCAR-3 = system: OVCAR-3
OVCAR-4 = system: OVCAR-4
OVCAR-5 = system: OVCAR-5
OVCAR-8 = system: OVCAR-8
RPMI-8226 = system: RPMI-8226
RXF 393 = system: RXF 393
SF-268 = system: SF-268
SF-295 = system: SF-295
SF-539 = system: SF-539
SK-MEL-28 = system: SK-MEL-28
SK-MEL-2 = system: SK-MEL-2
SK-MEL-5 = system: SK-MEL-5
SK-OV-3 = system: SK-OV-3
SN12C = system: SN12C
SNB-19 = system: SNB-19
SNB-75 = system: SNB-75
SNB-78 = system: SNB-78
SR = system: SR
SW-620 = system: SW-620
TK-10 = system: TK-10
U-251 = system: U-251
UACC-257 = system: UACC-257
UACC-62 = system: UACC-62
UO-31 = system: UO-31
XF498 = system: XF498

In the case of O=C1C(Cl)C(c2cc(Br)ccc2O)N1n1cnc2ccccc2c1=O (stereo not drawn), the GI50 (786-0) is reported as 17.3 µM (inactive), the GI50 (A498) is reported as 65.8 µM (inactive) and the GI50 (A549) is reported as 26.9 µM (inactive). The GI50 (ACHN) was 11.8 µM (inactive), the GI50 (CAKI-1) was 21.3 µM (inactive) and the GI50 (CCRF-CEM) was 3.28 µM (inactive). For the same compound, the GI50 (COLO 205) was 27.7 µM (inactive), the GI50 (DLD-1) was 15.6 µM (inactive) and the GI50 (DMS-114) was 5.46 µM (inactive). For the same compound, the GI50 (DMS-273) was 15.7 µM (inactive), the GI50 (EKVX) was 3.4 µM (inactive) and the GI50 (HCC 2998) was 17.4 µM (inactive). For the same compound, the GI50 (HCT-116) was 5.96 µM (inactive), the GI50 (HCT-15) was 5.13 µM and the GI50 (HL-60) was 1.72 µM (inactive). The GI50 (HOP-18) was 6.3 µM (inactive), the GI50 (HOP-62) was 13.7 µM (inactive) and the GI50 (HOP-92) was 15.7 µM (inactive). For the same compound, the GI50 (HT-29) was 30.5 µM (inactive), the GI50 (IGROV-1) was 17.5 µM (inactive) and the GI50 (K562) was 5.27 µM (inactive). The GI50 (KM-20L2) was 22.2 µM (inactive), the GI50 (KM12) was 20.7 µM (inactive) and the GI50 (LOX IMVI) was 6.64 µM (inactive). The GI50 (LXFL 529) was 17.1 µM (inactive), the GI50 (M14) was 11.3 µM (inactive) and the GI50 (M19-MEL) was 10.7 µM (inactive). The GI50 (MOLT-4) was 2.75 µM (inactive), the GI50 (Malme-3M) was 20.5 µM (inactive) and the GI50 (NCI-H226) was 6.87 µM (inactive). The GI50 (NCI-H23) was 16.5 µM (inactive), the GI50 (NCI-H460) was 6.62 µM (inactive) and the GI50 (NCI-H522) was 13.2 µM (inactive). For the same compound, the GI50 (OVCAR-3) was 6.93 µM (inactive), the GI50 (OVCAR-4) was 10.7 µM (inactive) and the GI50 (OVCAR-5) was 28.5 µM (inactive). The GI50 (OVCAR-8) was 12.1 µM (inactive), the GI50 (RPMI-8226) was 5.4 µM (inactive) and the GI50 (RXF 393) was 28.9 µM (inactive). For the same compound, the GI50 (SF-268) was 2.53 µM (inactive), the GI50 (SF-295) was 16.8 µM (inactive) and the GI50 (SF-539) was 18.5 µM (inactive). For the same compound, the GI50 (SK-MEL-28) was 14.1 µM (inactive), the GI50 (SK-MEL-2) was 22.1 µM (inactive) and the GI50 (SK-MEL-5) was 16.8 µM (inactive). For the same compound, the GI50 (SK-OV-3) was 20 µM (inactive), the GI50 (SN12C) was 20 µM (inactive) and the GI50 (SNB-19) was 14.5 µM (inactive). For the same compound, the GI50 (SNB-75) was 15.2 µM (inactive), the GI50 (SNB-78) was 30.9 µM (inactive) and the GI50 (SR) was 2.74 µM (inactive). The GI50 (SW-620) was 10 µM (inactive), the GI50 (TK-10) was 31.8 µM (inactive) and the GI50 (U-251) was 10.7 µM (inactive). The GI50 (UACC-257) was 10.5 µM (inactive), the GI50 (UACC-62) was 11.5 µM (inactive) and the GI50 (UO-31) was 7.4 µM (inactive). The GI50 (XF498) was 28.5 µM (inactive).
